The record followed here is patent publication CN102850337A, “多氮唑联螺烯酮类化合物及其制备方法和用途” (Sichuan University, priority 2011, dated 2013).

Each structure is given as a SMILES string. Like-named read-outs stand apart in the source and are kept apart here.

Assay [1] has as its system human breast cancer MDA-MB-231 cells [人乳腺癌MDA-MB-231细胞]. Description: CCK-8 in vitro tumour cell inhibition assay, MDA-MB-231 (Example 11, Tables 2-4). The assay is classed as cell-based.
Assay [2] deals with skin cancer A431 cells, colon cancer HCT116 cells, gastric cancer MKN45 cells, ovarian cancer SKOV-3 cells [皮肤癌A431细胞、结肠癌HCT116细胞、胃癌MKN45细胞、卵巢癌SKOV-3细胞]. Description: CCK-8 in vitro tumour cell inhibition assay (Example 10, Table 1). The assay is classed as cell-based. The conditions noted are these: A431, HCT116, MKN45, SKOV-3 cells; statement on Table 1 (IC50).

As a reminder, the IC50 is the concentration that inhibits the measured activity by half. `O=C1C=CC2(C=C1)OCC(=O)N2c1nc(-c2ccccc2)nn1-c1ccccc1` [LHDYX-1, 4-(1,3-二苯基-1H-1,2,4-三氮唑-5-基)-1-氧-4-氮螺[4.5]癸-6,9-二烯-3,8-二酮]: the figures for the half-inhibitory concentration (IC50) in assay [1] (24h), in assay [1] (48h) and in assay [1] (72h) were 26000 nM, 2880 nM and 340 nM, respectively. Also, in assay [2], the “inhibition of cancer cells compared with doxorubicin” value is “对癌细胞的抑制作用高于目前临床中已广泛使用抗肿瘤药物阿霉素(Doxorubicin)”. Further, the “inhibitory activity on cancer cells” value in assay [2] was “不同程度的抑制活性”.

In general, inhibition refers to the drop in the measured response relative to a control, in per cent. Consider `Cn1nc(-c2ccccc2)nc1N1C(=O)COC12C=CC(=O)C=C2` [LHDYX-2, 4-(1-甲基-3-苯基-1H-1,2,4-三氮唑-5-基)-1-氧-4-氮螺[4.5]癸-6,9-二烯-3,8-二酮], for which, in assay [1] (24h, read-out: inhibition rate), the inhibition at 0.05 µM was determined as 19.1%, the inhibition at 0.5 µM came to 17.1%, the inhibition at 5 µM was 39.9% and the inhibition at 50 µM was found to be 100%. Besides, in assay [1] (48h, read-out: inhibition rate), the inhibition at 0.05 µM came out at 19%, the inhibition at 0.5 µM turned out to be 76.4%, the inhibition at 5 µM worked out at 94.7% and the inhibition at 50 µM amounted to 93.5%. In assay [1] (72h, read-out: inhibition rate), the inhibition at 0.05 µM was 39.4%, the inhibition at 0.5 µM came to 95.3%, the inhibition at 5 µM was determined as 96.2% and the inhibition at 50 µM was determined as 96.4%.

As to `Cn1nc(N2C(=O)COC23C=CC(=O)C=C3)nc1-c1ccccc1` [LHDYX-3, 4-(1-甲基-5-苯基-1H-1,2,4-三氮唑-3-基)-1-氧-4-氮螺[4.5]癸-6,9-二烯-3,8-二酮], the IC50 in assay [1] (48h) stood at 2960 nM; in assay [1] (72h), 1460 nM.

For `COC1=CC(=O)C=CC12OCC(=O)N2c1nc(-c2ccccc2)nn1-c1ccccc1` (stereo not shown) [LHDYX-4, 4-(1,3-二苯基-1H-1,2,4-三氮唑-5-基)-6-甲氧基-1-氧-4-氮螺[4.5]癸-6,9-二烯-3,8-二酮], the inhibition at 5 µM in assay [1] (24h, read-out: inhibition rate (class symbol)) was below 0%; in assay [1] (48h, read-out: inhibition rate), 4.3%; in assay [1] (72h, read-out: inhibition rate) it was 17.2%. Moreover, the inhibition at 50 µM was found to be 42% in assay [1] (24h, read-out: inhibition rate); 98.4% in assay [1] (48h, read-out: inhibition rate); 100% in assay [1] (72h, read-out: inhibition rate).
